According to patent publication US9695155B2, “Herbicidal substituted pyrimidinyloxy benzene compounds” (E. I. DU PONT DE NEMOURS AND COMPANY, priority 2013, dated 2017):

Key:
Brazilian crabgrass = experiment: Test E preemergence; format: in vivo, Digitaria horizontalis; settings: for Crabgrass, Brazil plant response rating: scale 0 to 100 (0 no effect, 100 complete control); for Plant response rating, Crabgrass, Brazil: scale 0 to 100, 0 no effect, 100 complete control
Source text: (§1) Seeds of plant species selected from corn (Zea mays), soybean (Glycine max), velvetleaf (Abutilon theophrasti), lambsquarters (Chenopodium album), wild poinsettia (Euphorbia heterophylla), palmer pigweed (Amaranthus palmeri), waterhemp (common waterhemp, Amaranthus rudis), surinam grass (Brachiaria decumbens), large (Lg) crabgrass (Digitaria sanguinalis), Brazilian crabgrass (Digitaria horizontalis), fall panicum (Panicum dichotomiflorum), giant foxtail (Setaria faberii), green foxtail (Setaria viridis), goosegrass (Eleusine indica), johnsongrass (Sorghum halepense), ragweed (common ragweed, Ambrosia elatior), barnyardgrass (Echinochloa crus-galli), sandbur (southern sandbur, Cenchrus echinatus), arrowleaf sida (Sida rhombifolia), Italian ryegrass (Lolium multiflorum), dayflower (Virginia (VA) dayflower, Commelina virginica), field bindweed (Convolvulus arvensis), morningglory (Ipomoea coccinea), nightshade (eastern black nightshade, Solanum ptycanthum), kochia (Kochia scoparia), yellow nutsedge (Cyperus esculentus), cocklebur (common cocklebur, Xanthium strumarium), smartweed (ladysthumb smartweed, and hairy beggarticks (Bidens pilosa), were planted into a silt loam soil and treated preemergence with test chemicals formulated in a non-phytotoxic solvent mixture which included a surfactant.
(§2) At the same time, plants from these crop and weed species and also horseweed (Canada horseweed, Conyza canadensis), waterhemp_RES1, (ALS & Triazine resistant common waterhemp, Amaranthus rudis), and waterhemp_RES2, (ALS & HPPD resistant common waterhemp, Amaranthus rudis) were planted in pots containing Redi-Earth® planting medium (Scotts Company, 14111 Scottslawn Road, Marysville, Ohio 43041) comprising spaghnum peat moss, vermiculite, wetting agent and starter nutrients were treated with postemergence applications of test chemicals formulated in the same manner. Plants ranged in height from 2 to 18 cm for postemergence treatments (1- to 4-leaf stage). Treated plants and controls were maintained in a greenhouse for 14 to 21 days, after which time all species were compared to controls and visually evaluated. Plant response ratings, summarized in Table E, are based on a scale of 0 to 100 where 0 is no effect and 100 is complete control. A dash (-) response means no test result.

waterhemp = experiment: Test E preemergence; format: in vivo, Amaranthus rudis; settings: for Waterhemp plant response rating: scale 0 to 100 (0 no effect, 100 complete control); for Plant response rating, Waterhemp: scale 0 to 100, 0 no effect, 100 complete control
Source text: as §1, §2

lambsquarters = experiment: Test E preemergence; format: in vivo, Chenopodium album; settings: for Lambsquarters plant response rating: scale 0 to 100 (0 no effect, 100 complete control); for Plant response rating, Lambsquarters: scale 0 to 100, 0 no effect, 100 complete control
Source text: as §1, §2

corn = experiment: Test E preemergence; format: in vivo, Zea mays; settings: for Corn plant response rating: scale 0 to 100 (0 no effect, 100 complete control); for Plant response rating, Corn: scale 0 to 100, 0 no effect, 100 complete control
Source text: as §1, §2

goosegrass = experiment: Test E preemergence; format: in vivo, Eleusine indica; settings: for Goosegrass plant response rating: scale 0 to 100 (0 no effect, 100 complete control); for Plant response rating, Goosegrass: scale 0 to 100, 0 no effect, 100 complete control
Source text: as §1, §2

field bindweed = experiment: Test E preemergence; format: in vivo, Convolvulus arvensis; settings: for Field Bindweed plant response rating: scale 0 to 100 (0 no effect, 100 complete control); for Plant response rating, Field Bindweed: scale 0 to 100, 0 no effect, 100 complete control
Source text: as §1, §2

barnyardgrass [1] = experiment: Test E preemergence; format: in vivo, Echinochloa crus-galli; settings: for Barnyardgrass plant response rating: scale 0 to 100 (0 no effect, 100 complete control); for Plant response rating, Barnyardgrass: scale 0 to 100, 0 no effect, 100 complete control
Source text: as §1, §2

wild poinsettia = experiment: Test E preemergence; format: in vivo, Euphorbia heterophylla; settings: for Poinsettia, Wild plant response rating: scale 0 to 100 (0 no effect, 100 complete control); for Plant response rating, Poinsettia, Wild: scale 0 to 100, 0 no effect, 100 complete control
Source text: as §1, §2

kochia [2] = experiment: Test A preemergence; format: in vivo, Kochia scoparia
How it was run: (§3)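 Visual injury scored 0–100 (100 = complete control) against untreated controls about 10 days after treatment in a greenhouse. Test chemicals, formulated with surfactant in non-phytotoxic solvent, were sprayed on soil preemergence or on 2-10 cm, one- to two-leaf plants postemergence.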

galium = experiment: Test A postemergence; format: in vivo, Galium aparine; settings: 0 to 100 scale, 0 no effect, 100 complete control
How it was run: as §3

Italian ryegrass = experiment: Test A preemergence; format: in vivo, Lolium multiflorum
How it was run: as §3

ragweed = experiment: Test A preemergence; format: in vivo, Ambrosia elatior
How it was run: as §3

kochia [3] = experiment: Test A postemergence; format: in vivo, Kochia scoparia; settings: 0 to 100 scale, 0 no effect, 100 complete control
How it was run: as §3

ducksalad = experiment: Test C flooded paddy test; format: in vivo, Heteranthera limosa; settings: Flood, scale 0 to 100 (0 no effect, 100 complete control), 13 to 15 days
How it was run: (§4)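 Flooded 3 cm over soil; compound into paddy water; depth kept constant. Greenhouse 13–15 d.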

barnyardgrass [4] = experiment: Test C flooded paddy test; format: in vivo, Echinochloa crus-galli; settings: Flood, scale 0 to 100 (0 no effect, 100 complete control), 13 to 15 days
How it was run: as §4

[5] = 31 g ai/ha, 0 to 100 scale where 0 is no effect and 100 is complete control, visual, approximately 10 days

N#Cc1cccc(Oc2ncc(Cl)cn2)c1-n1cc(C(F)(F)F)cn1 [Compound 58, 3-[(5-chloro-2-pyrimidinyl)oxy]-2-[4-(trifluoromethyl)-1H-pyrazol-1-yl]benzonitrile]
Crabgrass, Brazil plant response rating (Brazilian crabgrass; 16 g ai/ha): 100
Crabgrass, Brazil plant response rating (Brazilian crabgrass; 31 g ai/ha): 100
Crabgrass, Brazil plant response rating (Brazilian crabgrass; 62 g ai/ha): 100
Plant response rating, Crabgrass, Brazil (Brazilian crabgrass; 125 g ai/ha): 100
Plant response rating, Crabgrass, Brazil (Brazilian crabgrass; 250 g ai/ha): 100
Waterhemp plant response rating (waterhemp; 16 g ai/ha): 98
Waterhemp plant response rating (waterhemp; 31 g ai/ha): 100
Waterhemp plant response rating (waterhemp; 62 g ai/ha): 100
Plant response rating, Waterhemp (waterhemp; 125 g ai/ha): 100
Plant response rating, Waterhemp (waterhemp; 250 g ai/ha): 100
Lambsquarters plant response rating (lambsquarters; 16 g ai/ha): 98
Lambsquarters plant response rating (lambsquarters; 31 g ai/ha): 98
Lambsquarters plant response rating (lambsquarters; 62 g ai/ha): 98
Plant response rating, Lambsquarters (lambsquarters; 125 g ai/ha): 98
Plant response rating, Lambsquarters (lambsquarters; 250 g ai/ha): 98
Corn plant response rating (corn; 16 g ai/ha): 0
Corn plant response rating (corn; 31 g ai/ha): 5
Corn plant response rating (corn; 62 g ai/ha): 40
Plant response rating, Corn (corn; 125 g ai/ha): 65
Plant response rating, Corn (corn; 250 g ai/ha): 70
Goosegrass plant response rating (goosegrass; 16 g ai/ha): 10
Goosegrass plant response rating (goosegrass; 31 g ai/ha): 70
Goosegrass plant response rating (goosegrass; 62 g ai/ha): 95
Plant response rating, Goosegrass (goosegrass; 125 g ai/ha): 100
Plant response rating, Goosegrass (goosegrass; 250 g ai/ha): 100
Field Bindweed plant response rating (field bindweed; 16 g ai/ha): 0
Field Bindweed plant response rating (field bindweed; 31 g ai/ha): 20
Field Bindweed plant response rating (field bindweed; 62 g ai/ha): 70
Plant response rating, Field Bindweed (field bindweed; 125 g ai/ha): 98
Plant response rating, Field Bindweed (field bindweed; 250 g ai/ha): 100
Barnyardgrass plant response rating (barnyardgrass [1]; 16 g ai/ha, preemergence): 20
Barnyardgrass plant response rating (barnyardgrass [1]; 31 g ai/ha, preemergence): 40
Plant response rating, Barnyardgrass (barnyardgrass [1]; Preemergence, 62 g ai/ha): 90
Plant response rating, Barnyardgrass (barnyardgrass [1]; preemergence, 125 g ai/ha): 95
Plant response rating, Barnyardgrass (barnyardgrass [1]; preemergence, 250 g ai/ha): 98
Poinsettia, Wild plant response rating (wild poinsettia; 16 g ai/ha): 5
Poinsettia, Wild plant response rating (wild poinsettia; 31 g ai/ha): 15
Poinsettia, Wild plant response rating (wild poinsettia; 62 g ai/ha): 90
Plant response rating, Poinsettia, Wild (wild poinsettia; 125 g ai/ha): 100
Plant response rating, Poinsettia, Wild (wild poinsettia; 250 g ai/ha): 100

Fc1cccc(Oc2ncc(Cl)cn2)c1-n1cc(OCC(F)(F)F)cn1 [Compound 270]
Plant response rating, Kochia (kochia [2]; [5]): 80
Kochia plant response rating (0 to 100 scale) (kochia [2]; 125 g ai/ha): 100
Plant response rating, Galium (galium; 31 g ai/ha): 60
Plant response rating, Galium (galium; 125 g ai/ha): 90
Plant response rating, Ryegrass, Italian (Italian ryegrass; [5]): 0
Ryegrass, Italian plant response rating (0 to 100 scale) (Italian ryegrass; 125 g ai/ha): 10
Plant response rating, Ragweed (ragweed; [5]): 0
Ragweed plant response rating (0 to 100 scale) (ragweed; 125 g ai/ha): 20
Plant response rating, Kochia (kochia [3]; 31 g ai/ha): 60
Plant response rating, Kochia (kochia [3]; 125 g ai/ha): 70
Plant response rating, Ducksalad (ducksalad; 31 g ai/ha): 20
Plant response rating, Ducksalad (ducksalad; 62 g ai/ha): 60
Plant response rating, Ducksalad (ducksalad; 125 g ai/ha): 80
Plant response rating, Ducksalad (ducksalad; 250 g ai/ha): 95
Plant response rating, Barnyardgrass (barnyardgrass [4]; 31 g ai/ha): 0
Plant response rating, Barnyardgrass (barnyardgrass [4]; 62 g ai/ha): 30
Plant response rating, Barnyardgrass (barnyardgrass [4]; 125 g ai/ha): 45
Plant response rating, Barnyardgrass (barnyardgrass [4]; 250 g ai/ha): 60
